Among the data in patent publication US20080262000A1, “5-Alkoxyalkyl-6-alkyl-7-Aminoazolopyrimidines, Process for Their Preparation, Their Use for Controlling Harmful Fungi, and Compositions Comprising Them” (BASF Aktiengesellschaft, priority 2005, published 2008) are infestation values, retold here.

Structures are written as SMILES. Like-named read-outs stand apart in the source and are kept apart here.

The assay concerns Phytophthora infestans. The assay is classed as in vivo. Particulars: potted tomato plants, untreated plants 90% infestation.
[1] abbreviates: 1 day of protective treatment, 250 ppm.
The mark [2] stands for this setting: 3 days of protective treatment, 250 ppm.

Under setting [1], `CCCCCCCCOCCCc1c(COC)nc2ncnn2c1N` [I-4] returned an infestation of 1%.

`CCCCCCCCc1c(C)nc2ncnn2c1N` [comparative compound A]: the infestation (1 day of protective treatment, 16 ppm) was 70% and the infestation under setting [2] is reported as 90%.

With `CCCCCCCCOCCCc1c(CCC)nc2ncnn2c1N` [comparative compound B], the infestation reads like this: under setting [1], 90%; under setting [2], 90%.
